In patent US9040307B2, “Fluorescent pH detector system and related methods” (Blood Cell Storage, Inc., priority 2011, dated 2015):
Read-outs that look alike come from different tables or passages of the source.

Assays:
[1] = cited from earlier work
[2] = Absorbance and emission spectra versus pH of SNAFL analogs in solution
Experimental: Absorbance was measured at pH 6, 8, and 10: acid (pH 6) gave two bands of similar absorbance; pH 10 gave a single λmax (base). The emission spectra were determined by excitation at the absorbance λmax (base). The wavelength where emission spectra crossed is reported as λiso. The emission λmax was measured at pH 10. pKa was determined from fluorescence emission spectra.
Fluorescence versus pH of various SNAFL free acids were compared using an Ocean Optics USB2000 fiber optic spectrometer and a tungsten halogen light source (part number HL-2000 FHSA). The light source was equipped with a linear variable filter that allowed the wavelength and shape of the excitation beam to be adjusted. The excitation wavelength was adjusted by using a blank cuvette to the absorbance max of the fluorophore (see Table 1). A cuvette holder (part number CUV-FL-DA) was directly attached to the light source and a fiber optic cable directed emitted light to the spectrometer. Excitation conditions are reported for each fluorescence spectrum (3000 msec irradiation at the indicated wavelength). Spectral data were collected on a personal computer using the Ocean Optics software and overlays of different spectra were captured.
SNAFL-1 was purchased as the free carboxylic acid from Molecular Probes in a 1 mg vial. 0.3 mL of isopropyl alcohol and 0.7 mL of water was added to make a 1 mg/mL solution. A molecular weight (MW) of 426 for SNAFL-1 was used to calculate molarity (SNAFL-1=2.35 mM). 4.25 uL of this solution was diluted to 1 mL with various 50 mM phosphate buffers to give 10 micromolar solutions with pH 6-10. 10 micromolar solutions of SNAFL-2 (MW=460) were prepared in a similar fashion. EBIO-1 (MW=523), EBIO-2 (MW=627), and EBIO-3 (MW=489) were obtained as bulk compounds from Epoch Biosciences. 1.6 mg of each solid powder was carefully weighed out and dissolved in 3.2 mL of 40% isopropyl alcohol to give 0.5 mg/mL solutions. Emission spectra were obtained for the various SNAFL and EBIO compounds at pH 6.0, 6.2, 6.4, 6.6, 6.8, 7.0, 8.0 and 10.0. […]

[3] = Absorbance and fluorescence of fluorophore/HSA conjugates in solution; assay type: physicochemical; details: pH 7.4; free acid 10 micromolar, conjugates 1 micromolar
From the text: A 10 micromolar solution of SNAFL-1 acid (obtained from Molecular Probes) at pH 7 was used as a standard to more accurately determine the average loading of SNAFL-1 per each HSA conjugate preparation.
Excitation conditions are reported for each fluorescence spectrum (3000 msec irradiation at the indicated wavelength).
The Ocean Optics halogen light source was equipped with a 532 nm interference filter (Edmund Optics, Barrington, N.J.) and this allowed the fluorescent isosbestic point at 572 nm for pH 6-7 to be detected.

[4] = pKa determination from fluorescence emission spectra of SNAFL free acids; assay type: physicochemical; details: 10 μM free acid, 50 mM phosphate buffers
From the text: The pH at which two molecular species (tautomers) are equally represented is defined as the pKa. There are many variables that can affect pKa and methods for measurement are difficult since the structures have overlapping absorbance. Therefore direct comparisons from the literature can vary slightly. The calculations contained herein are based on the assumption that, at pH 10, only the trianionic naphtholate structure is present. The intensity of fluorescence at the emission maxima is divided by 2, and pH of the intersecting pH curve is calculated by interpolation between the nearest 2 curves.

[5] = Photobleaching degradation under fluorescent light; assay type: physicochemical
Experimental: A photobleaching degradation curve for EBIO-3 and BCSI-3 was constructed utilizing fluorescent light exposure and measuring the absorption at 530 nm to quantify functional dye. Identical concentrations of both dyes, 7.9 μM, were exposed to continuous fluorescent light (34 W Philips Hg bulb) from a distance of 16 inches for 3 days. At 73.5 hours the two dyes had degraded 64% and the degradation is within 5.6% of each other.

[6] = Lee et al. (1989) Cytometry 10, 151-164

Compound	pKa [1, 6]	pKa ([1]; published values, free or immobilized dye)	Absorbance λmax (base) ([2]; 10 μM, pH 10) [nm]	Emission λmax (base) ([2]; pH 10, excitation at absorbance λmax (base)) [nm]	Emission λiso ([2]; wavelength where emission spectra crossed, excitation at absorbance λmax (base)) [nm]	absorbance maximum [3] [nm]	pKa (physchem)	pKa [4]	degraded (reduction in absorbance at 530 nm) ([5]; 73.5 hours continuous fluorescent light, 7.9 μM, pH 7.4 PBS) [%]	absorption at 530 nm of control set ([5]; protected from light)
Carboxynaphthofluorescein [CNF]	7.99	7.62								
O=C(O)CCc1cc2c(-c3ccccc3C(=O)O)c3ccc4cc(O)c(Cl)cc4c3oc-2cc1=O [EBIO-3]			534	610	560	534	6.61	6.6	64	unchanged
O=S1(=O)OC2(c3ccccc31)c1ccc3cc(O)ccc3c1Oc1c2ccc2cc(O)ccc12 [VITABLUE]	7.56									
